Target: human Cat S (Homo sapiens (Human), UniProt P25774)
Assay: Cathepsin enzyme inhibition assay (fluorogenic peptide substrate Z-Val-Val-Arg-AMC)
Type: biochemical
Settings: enzyme 1 nM, substrate 20 μM, pH 6.5
Description: Cathepsin Enzyme Inhibition Assay
Enzyme activity is measured by observing the increase in fluorescence intensity caused by cleavage of a peptide substrate containing a fluorophore whose emission is quenched in the intact peptide.
Assay buffer: 100 mM potassium phosphate pH 6.5, EDTA-Na 5 mM, Triton X-100 0.001%, DTT 5 mM.
Enzymes (all at 1 nM): human and mouse Cathepsin S, Cat K, Cat B, Cat L.
Substrate (20 μM): Z-Val-Val-Arg-AMC, except for Cat K which uses Z-Leu-Arg-AMC (both from Bachem).
AMC=7-Amino-4-Methyl-Coumarin.
Excitation 360 nm, Emission 465 nm.
Enzyme is added to the substance dilutions in 96-well microtitre plates and the reaction is started with substrate. […] IC50 are calculated by standard methods.
Inhibition of human Cat S, mouse Cat S, human Cat K, human Cat B, human Cat L and mouse Cat L have been measured separately.

Chain of human Cat S (P25774 115-331): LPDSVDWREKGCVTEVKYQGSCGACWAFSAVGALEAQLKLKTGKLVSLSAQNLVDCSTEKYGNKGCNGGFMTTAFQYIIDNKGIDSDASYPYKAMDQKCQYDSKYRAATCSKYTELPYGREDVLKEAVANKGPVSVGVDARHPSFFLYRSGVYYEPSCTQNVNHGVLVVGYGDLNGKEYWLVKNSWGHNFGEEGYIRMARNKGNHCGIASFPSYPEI

SMILES | IC50
N#CC1(NC(=O)[C@@H]2C[C@@H](S(=O)(=O)c3ccc(-c4cc[n+]([O-])c(Cl)c4)cc3C(F)(F)F)CN2C(=O)C2(C(F)(F)F)CC2)CC1 [Example 1, (2S,4R)-4-[4-(2-Chloro-1-oxy-pyridin-4-yl)-2-trifluoromethyl-benzenesulfonyl]-1-(1-trifluoromethyl-cyclopropanecarbonyl)-pyrrolidine-2-carboxylic acid (1-cyano-cyclopropyl)-amide] | 0.968 nM
Cc1cc(-c2ccc(S(=O)(=O)[C@@H]3C[C@@H](C(=O)NC4(C#N)CC4)N(C(=O)C4(C(F)(F)F)CC4)C3)c(C(F)(F)F)c2)cc[n+]1[O-] [Example 2, (2S,4R)-4-[4-(2-Methyl-1-oxy-pyridin-4-yl)-2-trifluoromethyl-benzenesulfonyl]-1-(1-trifluoromethyl-cyclopropanecarbonyl)-pyrrolidine-2-carboxylic acid (1-cyano-cyclopropyl)-amide] | 0.77 nM
Cn1nc(C(F)(F)F)cc1-c1ccc(S(=O)(=O)[C@@H]2C[C@@H](C(=O)NC3(C#N)CC3)N(C(=O)C3(C(F)(F)F)CC3)C2)c(C(F)(F)F)c1 [Example 3, (2S,4R)-4-[4-(2-Methyl-5-trifluoromethyl-2Hpyrazol-3-yl)-2-trifluoromethyl-benzenesulfonyl]-1-(1-trifluoromethyl-cyclopropanecarbonyl)-pyrrolidine-2-carboxylic acid (1-cyano-cyclopropyl)-amide] | 1.02 nM
N#CC1(NC(=O)[C@@H]2C[C@@H](S(=O)(=O)c3ccc(OC4CCC4)cc3C(F)(F)F)CN2C(=O)C2(C(F)(F)F)CC2)CC1 [Example 7, (2S,4R)-4-(4-Cyclobutoxy-2-trifluoromethyl-benzenesulfonyl)-1-(1-trifluoromethyl-cyclopropanecarbonyl)-pyrrolidine-2-carboxylic acid (1-cyano-cyclopropyl)-amide] | 0.91 nM
Cc1nnn(-c2ccc(S(=O)(=O)[C@@H]3C[C@@H](C(=O)NC4(C#N)CC4)N(C(=O)C4(C(F)(F)F)CC4)C3)c(Cl)c2)n1 [Example 8, (2S,4R)-4-(2-chloro-4-(5-methyl-2H-tetrazol-2-yl)phenylsulfonyl)-N-(1-cyanocyclopropyl)-1-(1-(trifluoromethyl)cyclopropanecarbonyl)pyrrolidine-2-carboxamide] | 0.533 nM

The remaining lines, values ahead:

IC50 | SMILES
0.978 nM | N#CC1(NC(=O)[C@@H]2C[C@@H](S(=O)(=O)c3ccc(-c4ccccc4OC(F)(F)F)cc3C(F)(F)F)CN2C(=O)C2(C(F)(F)F)CC2)CC1 [Example 4, (2S,4R)-4-(2′-Trifluoromethoxy-3-trifluoromethyl-biphenyl-4-sulfonyl)-1-(1-trifluoromethyl-cyclopropanecarbonyl)-pyrrolidine-2-carboxylic acid (1-cyano-cyclopropyl)-amide]
0.836 nM | CCOc1ccccc1-c1ccc(S(=O)(=O)[C@@H]2C[C@@H](C(=O)NC3(C#N)CC3)N(C(=O)C3(C(F)(F)F)CC3)C2)c(C(F)(F)F)c1 [Example 5, (2S,4R)-4-(2′-Ethoxy-3-trifluoromethyl-biphenyl-4-sulfonyl)-1-(1-trifluoromethyl-cyclopropanecarbonyl)-pyrrolidine-2-carboxylic acid (1-cyano-cyclopropyl)-amide]
1.06 nM | N#CC1(NC(=O)[C@@H]2C[C@@H](S(=O)(=O)c3ccc(-c4ccccc4OC4CC4)cc3C(F)(F)F)CN2C(=O)C2(C(F)(F)F)CC2)CC1 [Example 6, (2S,4R)-4-(2′-Cyclopropoxy-3-trifluoromethyl-biphenyl-4-sulfonyl)-1-(1-trifluoromethyl-cyclopropanecarbonyl)-pyrrolidine-2-carboxylic acid (1-cyano-cyclopropyl)-amide]
0.683 nM | Cc1nnnn1-c1ccc(S(=O)(=O)[C@@H]2C[C@@H](C(=O)NC3(C#N)CC3)N(C(=O)C3(C(F)(F)F)CC3)C2)c(Cl)c1 [Example 9, (2S,4R)-4-(2-chloro-4-(5-methyl-1H-tetrazol-1-yl)phenylsulfonyl)-N-(1-cyanocyclopropyl)-1-(1-(trifluoromethyl)cyclopropanecarbonyl)pyrrolidine-2-carboxamide]

Source: patent publication US10689339B2, “Pyrrolidine derivatives” (Hoffmann-La Roche Inc., priority 2016, dated 2020)
